In ChEMBL document CHEMBL1145534 (2007):
In brackets after ≈: the same amount, converted by molar mass.

How the values were obtained:
Type in all cases: functional
Corynebacterium jeikeium = assay: Antimicrobial activity against Corynebacterium jeikeium at 1 ug/ml by broth microdilution method
[1] = test system: Corynebacterium pseudodiphtheriticum; assay: Antimicrobial activity against Corynebacterium pseudodiphtheriticum at 0.5 ug/ml by broth microdilution method
Corynebacterium striatum [2] = assay: Antimicrobial activity against Corynebacterium striatum at <= 0.06 ug/ml by broth microdilution method
Corynebacterium striatum [3] = assay: Antimicrobial activity against Corynebacterium striatum at 0.12 ug/ml by broth microdilution method
Corynebacterium striatum [4] = assay: Antimicrobial activity against Corynebacterium striatum at 0.25 ug/ml by broth microdilution method
Enterococcus avium [5] = assay: Antimicrobial activity against Enterococcus avium at <= 0.06 ug/ml by broth microdilution method
Enterococcus avium [6] = assay: Antimicrobial activity against Enterococcus avium at 0.5 ug/ml by broth microdilution method
Enterococcus durans [7] = assay: Antimicrobial activity against Enterococcus durans at 0.25 ug/ml by broth microdilution method
Enterococcus durans [8] = assay: Antimicrobial activity against Enterococcus durans at 2 ug/ml by broth microdilution method
[9] = test system: Streptococcus constellatus; assay: Antimicrobial activity against viridans group Streptococcus constellatus at 0.12 ug/ml by broth microdilution method
Streptococcus equinus = assay: Antimicrobial activity against viridans group Streptococcus bovis at 0.25 ug/ml by broth microdilution method
Aerococcus [10] = assay: Antimicrobial activity against Aerococcus spp. at 0.12 ug/ml by broth microdilution method
Aerococcus [11] = assay: Antimicrobial activity against Aerococcus spp. at 1 ug/ml by broth microdilution method
Bacillus sp. [12] = assay: Antimicrobial activity against Bacillus spp. at 1 ug/ml by broth microdilution method; settings: Bacillus sp. (in: firmicutes)
Bacillus cereus = assay: Antimicrobial activity against Bacillus cereus at 0.25 ug/ml by broth microdilution method
Corynebacterium sp. [13] = assay: Antimicrobial activity against Corynebacterium spp. at <= 0.06 ug/ml by broth microdilution method
Corynebacterium sp. [14] = assay: Antimicrobial activity against Corynebacterium spp. at 0.12 ug/ml by broth microdilution method
Corynebacterium sp. [15] = assay: Antimicrobial activity against Corynebacterium spp. at 0.25 ug/ml by broth microdilution method
Corynebacterium sp. [16] = assay: Antimicrobial activity against Corynebacterium spp. at 2 ug/ml by broth microdilution method
Streptococcus [17] = assay: Antimicrobial activity against beta hemolytic Streptococcus group C at 0.12 ug/ml by broth microdilution method
Streptococcus [18] = assay: Antimicrobial activity against beta hemolytic Streptococcus group C at 0.5 ug/ml by broth microdilution method
Streptococcus [19] = assay: Antimicrobial activity against beta hemolytic Streptococci group C at <= 0.06 ug/ml by broth microdilution method
Streptococcus salivarius [20] = assay: Antimicrobial activity against viridans group Streptococcus salivarius at 0.25 ug/ml by broth microdilution method
Streptococcus salivarius [21] = assay: Antimicrobial activity against viridans group Streptococcus salivarius at 1 ug/ml by broth microdilution method
Streptococcus salivarius [22] = assay: Antimicrobial activity against viridans group Streptococcus salivarius at 2 ug/ml by broth microdilution method
Streptococcus anginosus [23] = assay: Antimicrobial activity against viridans group Streptococcus anginosus at 0.12 ug/ml by broth microdilution method
Enterococcus gallinarum [24] = assay: Antimicrobial activity against Enterococcus gallinarum at 4 ug/ml by broth microdilution method
Enterococcus hirae [25] = assay: Antimicrobial activity against Enterococcus hirae at <= 0.06 ug/ml by broth microdilution method
Enterococcus hirae [26] = assay: Antimicrobial activity against Enterococcus hirae at 0.25 ug/ml by broth microdilution method
Enterococcus raffinosus [27] = assay: Antimicrobial activity against Enterococcus raffinosus at 0.5 ug/ml by broth microdilution method
Enterococcus raffinosus [28] = assay: Antimicrobial activity against Enterococcus raffinosus at 1 ug/ml by broth microdilution method
Enterococcus raffinosus [29] = assay: Antimicrobial activity against Enterococcus raffinosus at 2 ug/ml by broth microdilution method
Micrococcus luteus [30] = assay: Antimicrobial activity against Micrococcus luteus at 0.25 ug/ml by broth microdilution method
Micrococcus luteus [31] = assay: Antimicrobial activity against Micrococcus luteus at 1 ug/ml by broth microdilution method
Rothia mucilaginosa [32] = assay: Antimicrobial activity against Rothia mucilaginosa at 1 ug/ml by broth microdilution method
Rothia mucilaginosa [33] = assay: Antimicrobial activity against Rothia mucilaginosa at 2 ug/ml by broth microdilution method
Aerococcus [34] = assay: Antimicrobial activity against Aerococcus spp. by broth microdilution method
Bacillus sp. [35] = assay: Antimicrobial activity against Bacillus spp. by broth microdilution method; settings: Bacillus sp. (in: firmicutes)
[36] = test system: Corynebacterium amycolatum; assay: Antimicrobial activity against Corynebacterium amycolatum by broth microdilution method
Enterococcus gallinarum [37] = assay: Antimicrobial activity against Enterococcus gallinarum by broth microdilution method
Enterococcus hirae [38] = assay: Antimicrobial activity against Enterococcus hirae by broth microdilution method
Enterococcus raffinosus [39] = assay: Antimicrobial activity against Enterococcus raffinosus by broth microdilution method
Streptococcus mutans [40] = assay: Antimicrobial activity against viridans group Streptococcus mutans at 0.5 ug/ml by broth microdilution method
[41] = test system: Streptococcus parasanguinis; assay: Antimicrobial activity against viridans group Streptococcus parasanguis at 0.25 ug/ml by broth microdilution method
[42] = test system: Streptococcus parasanguinis; assay: Antimicrobial activity against viridans group Streptococcus parasanguis at 1 ug/ml by broth microdilution method
Streptococcus salivarius [43] = assay: Antimicrobial activity against viridans group Streptococcus salivarius at <= 0.06 ug/ml by broth microdilution method
[44] = test system: Streptococcus constellatus; assay: Antimicrobial activity against viridans group Streptococcus constellatus at <= 0.06 ug/ml by broth microdilution method
[45] = test system: Streptococcus constellatus; assay: Antimicrobial activity against viridans group Streptococcus constellatus at 1 ug/ml by broth microdilution method
Streptococcus gordonii [46] = assay: Antimicrobial activity against viridans group Streptococcus gordonii at <= 0.06 ug/ml by broth microdilution method
[47] = test system: Streptococcus intermedius; assay: Antimicrobial activity against viridans group Streptococcus intermedius at 1 ug/ml by broth microdilution method
Streptococcus mutans [48] = assay: Antimicrobial activity against viridans group Streptococcus mutans at <= 0.06 ug/ml by broth microdilution method
[49] = test system: Streptococcus vestibularis; assay: Antimicrobial activity against viridans group Streptococcus vestibularis at 0.12 ug/ml by broth microdilution method
Streptococcus anginosus [50] = assay: Antimicrobial activity against viridans group Streptococcus anginosus by broth microdilution method
[51] = test system: Streptococcus constellatus; assay: Antimicrobial activity against viridans group Streptococcus constellatus by broth microdilution method
Streptococcus gordonii [52] = assay: Antimicrobial activity against viridans group Streptococcus gordonii by broth microdilution method
[53] = test system: Streptococcus parasanguinis; assay: Antimicrobial activity against viridans group Streptococcus parasanguis by broth microdilution method

For `CC(=O)NC[C@H]1CN(c2ccc(N3CCOCC3)c(F)c2)C(=O)O1` [LINEZOLID], the inhibition at 1 µg/mL (Corynebacterium jeikeium) was 100%, the inhibition at 0.5 µg/mL [1] was 90.9% and the Inhibition (Corynebacterium striatum [2]) was 0%. It also gave an inhibition at 0.12 µg/mL (Corynebacterium striatum [3]) of 12%, an inhibition at 0.25 µg/mL (Corynebacterium striatum [4]) of 88% and an Inhibition (Enterococcus avium [5]) of 0%. The inhibition at 0.5 µg/mL (Enterococcus avium [6]) was 4.3%, the inhibition at 0.25 µg/mL (Enterococcus durans [7]) was 2% and the inhibition at 2 µg/mL (Enterococcus durans [8]) was 100%. For the same compound, the inhibition at 0.12 µg/mL [9] was 3.4%, the inhibition at 0.25 µg/mL (Streptococcus equinus) was 2.7% and the inhibition at 0.12 µg/mL (Aerococcus [10]) was 0%. It also gave an inhibition at 1 µg/mL (Aerococcus [11]) of 63.6%, an inhibition at 1 µg/mL (Bacillus sp. [12]) of 97.2% and an inhibition at 0.25 µg/mL (Bacillus cereus) of 3.3%. For the same compound, the Inhibition (Corynebacterium sp. [13]) was 2.1%, the inhibition at 0.12 µg/mL (Corynebacterium sp. [14]) was 13.6% and the inhibition at 0.25 µg/mL (Corynebacterium sp. [15]) was 68.2%. For the same compound, the inhibition at 2 µg/mL (Corynebacterium sp. [16]) was 100%, the inhibition at 0.12 µg/mL (Streptococcus [17]) was 3% and the inhibition at 0.5 µg/mL (Streptococcus [18]) was 16.6%. For the same compound, the Inhibition (Streptococcus [19]) was 0%, the inhibition at 0.25 µg/mL (Streptococcus salivarius [20]) was 3.3% and the inhibition at 1 µg/mL (Streptococcus salivarius [21]) was 98.9%. The inhibition at 2 µg/mL (Streptococcus salivarius [22]) was 100%, the inhibition at 0.12 µg/mL (Streptococcus anginosus [23]) was 2.9% and the inhibition at 4 µg/mL (Enterococcus gallinarum [24]) was 100%. The Inhibition (Enterococcus hirae [25]) was 0%, the inhibition at 0.25 µg/mL (Enterococcus hirae [26]) was 0% and the inhibition at 0.5 µg/mL (Enterococcus raffinosus [27]) was 0%. The inhibition at 1 µg/mL (Enterococcus raffinosus [28]) was 46.2%, the inhibition at 2 µg/mL (Enterococcus raffinosus [29]) was 100% and the inhibition at 0.25 µg/mL (Micrococcus luteus [30]) was 3.4%. For the same compound, the inhibition at 1 µg/mL (Micrococcus luteus [31]) was 100%, the inhibition at 1 µg/mL (Rothia mucilaginosa [32]) was 94.4% and the inhibition at 2 µg/mL (Rothia mucilaginosa [33]) was 100%. The MIC50 (Aerococcus [34]) was 1 µg/mL (≈ 2.96 µM), the MIC90 (Aerococcus [34]) was 2 µg/mL (≈ 5.93 µM) and the MIC50 (Bacillus sp. [35]) was 1 µg/mL (≈ 2.96 µM). The MIC90 (Bacillus sp. [35]) was 1 µg/mL (≈ 2.96 µM), the MIC50 [36] was 0.25 µg/mL (≈ 0.741 µM) and the MIC90 [36] was 0.25 µg/mL (≈ 0.741 µM). The MIC50 (Enterococcus gallinarum [37]) was 2 µg/mL (≈ 5.93 µM), the MIC90 (Enterococcus gallinarum [37]) was 2 µg/mL (≈ 5.93 µM) and the MIC50 (Enterococcus hirae [38]) was 2 µg/mL (≈ 5.93 µM). It also gave an MIC90 (Enterococcus hirae [38]) of 2 µg/mL (≈ 5.93 µM), an MIC50 (Enterococcus raffinosus [39]) of 2 µg/mL (≈ 5.93 µM) and an MIC90 (Enterococcus raffinosus [39]) of 2 µg/mL (≈ 5.93 µM). The inhibition at 0.5 µg/mL (Streptococcus mutans [40]) was 36.8%, the inhibition at 0.25 µg/mL [41] was 0% and the inhibition at 1 µg/mL [42] was 100%. The Inhibition (Streptococcus salivarius [43]) was 0%, the Inhibition [44] was 1.1% and the inhibition at 1 µg/mL [45] was 98.9%. For the same compound, the Inhibition (Streptococcus gordonii [46]) was 0%, the inhibition at 1 µg/mL [47] was 87.9% and the Inhibition (Streptococcus mutans [48]) was 0%. For the same compound, the inhibition at 0.12 µg/mL [49] was 0%, the MIC50 (Streptococcus anginosus [50]) was 1 µg/mL (≈ 2.96 µM) and the MIC90 (Streptococcus anginosus [50]) was 1 µg/mL (≈ 2.96 µM). For the same compound, the MIC50 [51] was 1 µg/mL (≈ 2.96 µM), the MIC90 [51] was 1 µg/mL (≈ 2.96 µM) and the MIC50 (Streptococcus gordonii [52]) was 1 µg/mL (≈ 2.96 µM). It also gave an MIC90 (Streptococcus gordonii [52]) of 1 µg/mL (≈ 2.96 µM), an MIC50 [53] of 0.5 µg/mL (≈ 1.48 µM) and an MIC90 [53] of 1 µg/mL (≈ 2.96 µM).
